Experimental data: US10399971B2, “Compound for treating or preventing hyperuricemia or gout” (JIANGSU ATOM BIOSCIENCE AND PHARMACEUTICAL CO., LTD., priority 2015, dated 2019)
Values joined by “and” are separate entries in the source; they are usually repeats but may differ in a detail not shown here. Equal entries are not always repeated. Where two headings read alike, the source gives them in different places.

Experiments:
[1] = Pharmacokinetics following intravenous and oral administration in SD rats; assay type: in vivo
Description: Dose formulation preparation for PO: Weight out the required amount of compound 74. Added approximately 70% of 0.5% CMC-Na with stirring, vortexing and sonication to mix well until visually well suspension. Then added the remaining vehicle to target total volume and vortex-mix.
Dose formulation preparation for IV: Weight out the required amount of compound 74. Added appropriate DMSO with sonication until dissolved, then added appropriate HP-β-Cyclodextrin water solution (20%, w/v) with vortexing to mix well.
Species: SD rats (SPF Level); sex: male; source: Sino-British SIPPR/BK Lab Animal Ltd., Shanghai.
The animals that dosed via orally were fasted overnight (10-14 hours) prior to oral administration. Food supply to the animals dosed orally were resumed 4 h post-dose.
Blood samples (approximately 250 μL/sample) were collected via jugular vein at Pre-dose and Post-dose (5 min, 15 min, 30 min, 1 h, 2 h, 4 h, 6 h, 8 h, and 24 h). Blood samples were placed into tubes containing sodium heparin and centrifuged conditions at 8000 rpm for 6 minutes at 2-8° C. to separate plasma from the samples. Plasma sample (50 μL) were transferred to tube, then 250 μL IS solution (200 ng/mL Tolbutamide) was added to it. After vortexing for 1 min and centrifuging for 5 min at 15000 rpm, 200 μL aliquots of supernatant were transferred to 96-well plate for LC-MS/MS analysis. The calibration curve of compound 74 was ranging from 1 to 1000 ng/mL. The LLOQ is 1 ng/mL for plasma.
A non-compartemental module of WinNonlin® Professional 5.2 was used to calculate parameters. The bioavailability was calculated as F %=(Dose(IV)×AUC(0-t)(PO))/(Dose(PO)×AUC(0-t)(IV))×100%.

[2] = test system: human normal liver cell line WRL-68; assay: Cytotoxicity test on human normal liver cell line WRL-68 (Alamar Blue); assay type: cell-based; settings: WRL68, WRL-68 cells, 120 h incubation, cell viability, read-out: half inhibitory concentration (IC50) against WRL-68
Protocol: 2.1 The normal liver cell lines L-02 and WRL-68 were cultured with DMEM culture medium (containing 10% of fetal bovine serum, 100 U/mL of penicillin and 0.1 mg/mL of streptomycin) in an incubator under 5% CO2 at 37° C. until the cell density was about 90%, respectively.
2.3 Tested compounds and benzbromarone at different concentration gradients were prepared by using the DMEM culture medium and added into wells at 100 μL/well as compounds wells. The DMEM culture medium was added into wells at 100 μL/well without tested compound as negative control wells.
This 10× Alamar Blue solution was diluted into 1× Alamar Blue solution with phenol red free DMEM culture medium before use.
2.5 The cells were washed with PBS (0.1 M, pH=7.4) twice. The Alamar Blue solution was added into wells at 100 μL/well. 100 μL of Alamar Blue solution was added into wells without cells to serve as blank control wells. The 96-well plate was placed in an incubator under 5% CO2 at 37° C. for 3 h. Each concentration of compound was repeated three times during the test.
The fluorescence value of the cells containing compound is the F(test compound); the fluorescence value of the cells without compound as blank control is the F(blank control); the fluorescent value of the cells from negative control group is F(negative control). The average value and standard deviation of cell viability of three repeated concentrations was calculated by the following formula: […]
2.7 The half inhibitory concentration (IC50) of the compound for the cells L-02 and WRL-68 was obtained from the cell viability by Prism Graph software.

[3] = IV 1 mg/kg, individual rats 201-203, 1 mg/kg
[4] = PO 10 mg/kg, individual rats 101-103, 10 mg/kg

Compound: CCc1nc2ccccn2c1C(=O)c1cc(Br)c(O)c(C#N)c1 [Compound 74, 3-bromo-5-(2-ethylimidazo[1,2-a]pyridine-3-carbonyl)-2-hydroxybenzonitrile hydrogen chloride]
- Clz ([1]; IV 1 mg/kg, Mean of 3 rats): 108.18 mL/h/kg
- AUC(0-t) [1, 3]: 9076.84 ng·h/mL and 8847.27 ng·h/mL
- Clz [1, 3]: 110.23 mL/h/kg and 105.66 mL/h/kg and 108.65 mL/h/kg
- Cmax [1, 3]: 6705.53 ng/mL and 6885.21 ng/mL
- MRT(0-∞) [1, 3]: 5.60 h
- Vz [1, 3]: 917.79 mL/kg and 934.49 mL/kg
- t1/2 [1, 3]: 6.00 h
- F (%) ([1]; PO 10 mg/kg vs IV 1 mg/kg, from AUC(0-t), individual rats 101-103): 108.04% and 100.28%
- AUC(0-t) [1, 4]: 96188.83 ng·h/mL and 89284.20 ng·h/mL
- Cmax [1, 4]: 6976.14 ng/mL and 8251.74 ng/mL
- MRT(0-∞) [1, 4]: 6.80 h and 6.00 h
- Tmax [1, 4]: 2.00 h and 6.00 h
- t1/2 [1, 4]: 3.00 h and 2.70 h
- half-life ([1]; male, SD, rat, plasma, iv, 1 mg/kg, IV 1 mg/kg, Mean of 3 rats): 348 min
- AUC(0-t) ([1]; male, SD, rat, plasma, iv, 1 mg/kg, IV 1 mg/kg, Mean of 3 rats, read-out: AUC(0-t)): 8900 ng·h/mL
- Cmax ([1]; male, SD, rat, plasma, iv, 1 mg/kg, IV 1 mg/kg, Mean of 3 rats, read-out: Cmax): 6360 ng/mL
- MRT inf ([1]; male, SD, rat, plasma, iv, 1 mg/kg, IV 1 mg/kg, Mean of 3 rats, read-out: MRT(0-∞)): 5.5 h
- Tmax ([1]; male, SD, rat, plasma, iv, 1 mg/kg, IV 1 mg/kg, Mean of 3 rats, read-out: Tmax): 0.1 h
- Vd ([1]; male, SD, rat, plasma, iv, 1 mg/kg, IV 1 mg/kg, Mean of 3 rats, read-out: Vz): 0.904 L/kg
- half-life ([1]; male, SD, rat, plasma, iv, 1 mg/kg, IV 1 mg/kg, individual rats 201-203): 324 min
- AUC(0-t) ([1]; male, SD, rat, plasma, iv, 1 mg/kg, IV 1 mg/kg, individual rats 201-203, read-out: AUC(0-t)): 8790 ng·h/mL
- Cmax ([1]; male, SD, rat, plasma, iv, 1 mg/kg, IV 1 mg/kg, individual rats 201-203, read-out: Cmax): 5490 ng/mL
- MRT inf ([1]; male, SD, rat, plasma, iv, 1 mg/kg, IV 1 mg/kg, individual rats 201-203, read-out: MRT(0-∞)): 5.4 h
- Tmax ([1]; male, SD, rat, plasma, iv, 1 mg/kg, IV 1 mg/kg, individual rats 201-203, read-out: Tmax): 0.1 h
- Vd ([1]; male, SD, rat, plasma, iv, 1 mg/kg, IV 1 mg/kg, individual rats 201-203, read-out: Vz): 0.859 L/kg
- bioavailability ([1]; male, SD, rat, plasma, po, 10 mg/kg, PO 10 mg/kg vs IV 1 mg/kg, from AUC(0-t), Mean of 3 rats): 103%
- bioavailability ([1]; male, SD, rat, plasma, po, 10 mg/kg, PO 10 mg/kg vs IV 1 mg/kg, from AUC(0-t), individual rats 101-103): 101%
- half-life ([1]; male, SD, rat, plasma, po, 10 mg/kg, PO 10 mg/kg, Mean of 3 rats): 174 min
- AUC(0-t) ([1]; male, SD, rat, plasma, po, 10 mg/kg, PO 10 mg/kg, Mean of 3 rats, read-out: AUC(0-t)): 91800 ng·h/mL
- Cmax ([1]; male, SD, rat, plasma, po, 10 mg/kg, PO 10 mg/kg, Mean of 3 rats, read-out: Cmax): 8140 ng/mL
- MRT inf ([1]; male, SD, rat, plasma, po, 10 mg/kg, PO 10 mg/kg, Mean of 3 rats, read-out: MRT(0-∞)): 6.3 h
- Tmax ([1]; male, SD, rat, plasma, po, 10 mg/kg, PO 10 mg/kg, Mean of 3 rats, read-out: Tmax): 3.3 h
- half-life ([1]; male, SD, rat, plasma, po, 10 mg/kg, PO 10 mg/kg, individual rats 101-103): 174 min
- AUC(0-t) ([1]; male, SD, rat, plasma, po, 10 mg/kg, PO 10 mg/kg, individual rats 101-103, read-out: AUC(0-t)): 89900 ng·h/mL
- Cmax ([1]; male, SD, rat, plasma, po, 10 mg/kg, PO 10 mg/kg, individual rats 101-103, read-out: Cmax): 9210 ng/mL
- MRT inf ([1]; male, SD, rat, plasma, po, 10 mg/kg, PO 10 mg/kg, individual rats 101-103, read-out: MRT(0-∞)): 5.9 h
- IC50 [2]: > 100 µM
